According to ChEMBL document CHEMBL4609989, “Synthesis and antileishmanial activity of fluorinated rhodacyanine analogues: The 'fluorine-walk' analysis” (Bioorg Med Chem, 2020):
Active and inactive are the calls of the source. The rule behind the calls is not given here.

Columns and labels:
[1] = test system: Leishmania martiniquensis; test: Antileishmanial activity against Leishmania martiniquensis MHOM/MQ/92/MAR promastigote at 0.1 uM incubated for 72 hrs by resazurin dye based colorimetric assay relative to control; type: functional; settings: for inhibition at 0.1 µM: Leishmania martiniquensis, MHOM/MQ/92/MAR, 72 h
J774.A1 [2] = test: Cytotoxicity against mouse J774A.1 cells assessed as reduction in cell viability at 4.0 uM incubated for 72 hrs by colorimetric assay relative to control; type: cell-based; settings: j774.a1, 72 h
[3] = test system: Leishmania martiniquensis; test: Antileishmanial activity against Leishmania martiniquensis MHOM/MQ/92/MAR promastigote incubated for 72 hrs by resazurin dye based colorimetric assay; type: functional, organism-based; settings: Leishmania martiniquensis, MHOM/MQ/92/MAR, 72 h
Leishmania orientalis [4] = test: Antileishmanial activity against Leishmania orientalis MHOM/TH/2010/PCM2 promastigote at 0.25 uM incubated for 72 hrs by resazurin dye based colorimetric assay relative to control; type: functional; settings: Leishmania orientalis, MHOM/TH/2010/PCM2, 72 h
[5] = test system: Leishmania martiniquensis; test: Antileishmanial activity against Leishmania martiniquensis MHOM/MQ/92/MAR promastigote at 0.25 uM incubated for 72 hrs by resazurin dye based colorimetric assay relative to control; type: functional; settings: for inhibition at 0.25 µM: Leishmania martiniquensis, MHOM/MQ/92/MAR, 72 h
Leishmania orientalis [6] = test: Antileishmanial activity against Leishmania orientalis MHOM/TH/2010/PCM2 axenic amastigotes at 0.25 uM incubated for 72 hrs by resazurin dye based colorimetric assay relative to control; type: functional; settings: Leishmania orientalis, MHOM/TH/2010/PCM2, 72 h
J774.A1 [7] = test: Cytotoxicity against mouse J774A.1 cells assessed as reduction in cell viability at 0.25 uM incubated for 72 hrs by colorimetric assay relative to control; type: cell-based; settings: j774.a1, 72 h
Leishmania orientalis [8] = test: Antileishmanial activity against Leishmania orientalis MHOM/TH/2010/PCM2 promastigote at 0.1 uM incubated for 72 hrs by resazurin dye based colorimetric assay relative to control; type: functional; settings: for inhibition at 0.1 µM: Leishmania orientalis, MHOM/TH/2010/PCM2, 72 h
Leishmania orientalis [9] = test: Antileishmanial activity against Leishmania orientalis MHOM/TH/2010/PCM2 axenic amastigotes incubated for 72 hrs by resazurin dye based colorimetric assay; type: functional, organism-based; settings: Leishmania orientalis, MHOM/TH/2010/PCM2, 72 h
Leishmania orientalis [10] = test: Antileishmanial activity against Leishmania orientalis MHOM/TH/2010/PCM2 promastigote incubated for 72 hrs by resazurin dye based colorimetric assay; type: functional, organism-based; settings: Leishmania orientalis, MHOM/TH/2010/PCM2, 72 h

Structure (SMILES) | inhibition [1] | Activity (J774.A1 [2]) | IC50 [3] | inhibition at 0.25 µM (Leishmania orientalis [4]) | inhibition [5] | inhibition at 0.25 µM (Leishmania orientalis [6]) | Activity (J774.A1 [7]) | inhibition (Leishmania orientalis [8]) | inhibition at 0.1 µM [1] | inhibition at 0.25 µM [5] | IC50 (Leishmania orientalis [9]) | IC50 (Leishmania orientalis [10]) | inhibition at 0.1 µM (Leishmania orientalis [8])
CCCCCCCCCCCCCCCCOP(=O)([O-])OCC[N+](C)(C)C [MILTEFOSINE] | inactive | 12.4% | 15800 nM | 4% | inactive | 24.9% | 7.3% | inactive |  |  |  |  | 
CCn1c(=O)/c(=C/C=C2\Sc3cc(C(F)(F)F)ccc3N2C)s/c1=C\c1sc2ccc(F)cc2[n+]1C.[Cl-] |  | 52.2% |  | 33.3% |  | 68.4% | 13.3% | inactive | 5.9% | 39.2% |  |  | 
CCn1c(=O)/c(=C/C=C2\Sc3cc(F)ccc3N2C)s/c1=C\c1sc2ccccc2[n+]1C.[Cl-] |  | 61.8% |  | 96% |  | 91.2% | Non-Toxic |  | 40.3% | 87.8% | 223 nM | 88 nM | 60%
CCn1c(=O)/c(=C/C=C2\Sc3ccccc3N2C)s/c1=C\c1sc2cc(F)ccc2[n+]1C.[Cl-] |  | 41.3% |  | 95.4% |  | 78.5% | Non-Toxic |  | 57.1% | 71.1% | 200 nM | 40 nM | 85.7%
CCn1c(=O)/c(=C/C=C2\Sc3cccc(F)c3N2C)s/c1=C\c1sc2ccccc2[n+]1C.[Cl-] |  | 13.4% |  | 84.2% |  | 40.2% | Non-Toxic |  | 30% | 73% |  |  | 33%
CCn1c(=O)/c(=C/C=C2\Sc3ccccc3N2C)s/c1=C\c1sc2cc(F)c(F)cc2[n+]1C.[Cl-] |  | 18.6% | 106 nM | 89.5% |  | 92.8% | Non-Toxic |  | 80.6% | 91.2% | 77 nM | 114 nM | 61.6%
CCn1c(=O)/c(=C/C=C2\Sc3ccc(F)cc3N2C)s/c1=C\c1sc2ccc(F)cc2[n+]1C.[Cl-] |  | 13.8% |  | 81.5% |  | 87.9% | Non-Toxic |  | 56.4% | 79.8% | 80 nM | 161 nM | 57.5%
CCn1c(=O)/c(=C/C=C2\Sc3ccccc3N2C)s/c1=C\c1sc2cccc(F)c2[n+]1C.[Cl-] |  | 24.9% |  | 92.9% |  | 58.2% | Non-Toxic |  | 37.7% | 64.1% |  | 65 nM | 67.5%
CCn1c(=O)/c(=C/C=C2\Sc3ccccc3N2C)s/c1=C\c1sc2cc(C(F)(F)F)ccc2[n+]1C.[Cl-] |  | 33.3% |  | 87.6% |  | 71.1% | 0.5% |  | 10.5% | 24.9% |  |  | 39%
CCn1c(=O)/c(=C/C=C2\Sc3cc(F)ccc3N2C)s/c1=C\c1sc2ccc(F)cc2[n+]1C.[Cl-] |  | 20.7% | 142 nM | 93% |  | 93% | Non-Toxic |  | 54.3% | 93.4% | 85 nM |  | 32.3%
